Assay results: publication PMC10060569 (Frontiers in Pharmacology, 2023)

Biological target: T1, hP2X7R (Homo sapiens, UniProt Q99572)
T1 construct: expressed in transfected cells; host or cells: Xenopus laevis oocytes (cRNA injection)
T1 sequence (Q99572 1-595): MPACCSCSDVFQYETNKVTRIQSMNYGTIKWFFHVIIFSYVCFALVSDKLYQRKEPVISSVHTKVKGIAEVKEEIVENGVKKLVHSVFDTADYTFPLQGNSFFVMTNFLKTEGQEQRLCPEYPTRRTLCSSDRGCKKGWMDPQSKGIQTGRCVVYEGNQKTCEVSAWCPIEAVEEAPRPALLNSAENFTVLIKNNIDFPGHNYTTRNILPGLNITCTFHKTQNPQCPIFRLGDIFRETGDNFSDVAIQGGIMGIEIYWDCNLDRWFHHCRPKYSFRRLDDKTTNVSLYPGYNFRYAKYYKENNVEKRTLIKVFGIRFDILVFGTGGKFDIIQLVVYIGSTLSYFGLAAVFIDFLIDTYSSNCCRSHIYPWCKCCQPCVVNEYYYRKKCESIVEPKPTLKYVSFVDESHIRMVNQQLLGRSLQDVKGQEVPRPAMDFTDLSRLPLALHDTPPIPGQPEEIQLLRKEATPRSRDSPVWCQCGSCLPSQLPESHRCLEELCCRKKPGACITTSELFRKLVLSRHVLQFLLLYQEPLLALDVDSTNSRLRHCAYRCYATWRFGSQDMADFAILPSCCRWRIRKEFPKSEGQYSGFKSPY
Experiment: TEVC of ATP4--induced currents, hP2X7R in X. laevis oocytes (modified steady-state protocol)
Assay type: cell-based
Conditions: for IC50: estimated from few tested concentrations
Description: Ion currents mediated by P2X receptors were evoked by the indicated concentration of ATP or α,β-meATP and were recorded 1 or 2 days after cRNA injection at ambient temperature at a holding potential of −60 mV by two-electrode voltage clamp (TEVC) as previously described ([Hausmann et al., 2006]). Calcium-free ORi^− solution (90 mM NaCl, 1 mM KCl, 2 mM MgCl2, 10 mM HEPES, pH 7.4) was used to avoid bias due to calcium-activated chloride channels (CaCC) endogenously expressed in X. laevis oocytes ([Miledi, 1982]; [Methfessel et al., 1986]). For recordings of wt-hP2X7R, the composition of the ORi^− solution was modified according to protocols described previously and contained 100 mM NaCl, 2.5 mM KCl, 1 mM MgCl2, 5 mM HEPES, pH 7.4 ([Klapperstück et al., 2000]). The oocytes were continuously superfused with ORi^− by gravity flow (5–10 ml/min). The agonists ATP or α,β-meATP and the investigated NSAIDs were diluted in ORi^− on the day of the recording. The following agonist concentrations were used for the different P2X subtypes: 1 μM ATP (hP2X1R mutant, hP2X3R, rP2X3R, S^15V-hP2X3R, and S^15V-rP2X3R); 10 μM ATP (hP2X2R and hP2X4R); 300 μM free ATP^4- (hP2X7R); and 1 μM α,β-meATP (hP2X2/3R). A peak current protocol (Supplementary Figure S1) was used to analyze fast- and intermediate desensitizing P2XR subtypes (P2X1R, P2X3R, and S^15V-P2X3R), and a steady-state protocol (Supplementary Figure S2) was used for slowly or partially desensitizing P2X subtypes (P2X2R, P2X2/3R, and P2X4R). For recordings of P2X7R, a modified steady-state protocol was used ([Hausmann et al., 2006]). The application of different bath solutions was controlled by computer-operated magnetic valves controlled by the CellWorks E 5.5.1 software (npi electronic, Tamm, Germany).
In the case of hP2X7R, the control current in the absence of the antagonist had to be extrapolated (Supplementary Figure S4 and Supplementary Figure S5) presuming a linear increase in permeability during continuous ATP application ([North, 2002]) since the permeability of the receptor is affected by the antagonist.
For recordings of P2X7R, most scientists use divalent-free solutions such as ORi supplemented with 100 µM flufenamic acid (FFA) as an unselective ion channel blocker to inhibit non-specific chloride conductance in the absence of divalent ions ([Weber et al., 1995]; [Hülsmann et al., 2003]). However, since FFA is one of the investigated NSAIDs, this supplement was not reasonable. Therefore, the composition of the ORi-solution was modified as follows: 100 mM NaCl, 2.5 mM KCl, 1 mM MgCl2, 5 mM HEPES, pH 7.4, and according to former protocols ([Klapperstück et al., 2000]), a free ATP^4−concentration of 300 µM was adjusted.

| SMILES | reduction of ATP4--induced current amplitude by 300 µM diclofenac (300 µM diclofenac, 300 µM free ATP4-) | IC50 (300 µM free ATP4-) | reversibility of the effect on hP2X7R-mediated current responses (slope of current before and after FFA application) |
| --- | --- | --- | --- |
| O=C(O)Cc1ccccc1Nc1c(Cl)cccc1Cl [Diclofenac, diclofenac] | approximately 33% | > 300 µM | – |
| O=C(O)c1ccccc1Nc1cccc(C(F)(F)F)c1 [Flufenamic acid, flufenamic acid] | – | ~900 µM | potentially irreversible |
